Measurements from patent publication US20230393140A1, “BINDING ASSAYS INVOLVING A PLURALITY OF SYNTHETIC COMPOUNDS, TARGETS, AND COUNTER TARGETS” (SRI International, priority 2020, published 2023).
Read-outs that look alike come from different tables or passages of the source. Numbered stars: 1 amine (or outer) side, 2 acyl side, 3 side chain; on linkers, the order of the positions; unused ones are H or OH. Square brackets hold non-standard residues; d marks the D form. Peptide text beside a SMILES is read from it. * marks the point of attachment. 5FAM = O=C1OC2(c3ccc(O)cc3Oc3cc(O)ccc32)c2ccc(C(=O)*)cc21; NHCH2C6H4(4-CH2CONH2) = NC(=O)Cc1ccc(CN*)cc1; X1 = O=C(Cc1ccc(CN[*:1])cc1)[*:2]

Key:
IL-6R = target: T1, IL-6R (Homo sapiens, UniProt P08887); experiment: MST binding affinity of resynthesized NNP hits to IL-6R; settings: MST, NNP2 library hit, target SIL-6R, one-site binding model
T1 construct: purchased Creative Biomart IL6R-584H
T1 sequence (P08887 20-355 limits assumed): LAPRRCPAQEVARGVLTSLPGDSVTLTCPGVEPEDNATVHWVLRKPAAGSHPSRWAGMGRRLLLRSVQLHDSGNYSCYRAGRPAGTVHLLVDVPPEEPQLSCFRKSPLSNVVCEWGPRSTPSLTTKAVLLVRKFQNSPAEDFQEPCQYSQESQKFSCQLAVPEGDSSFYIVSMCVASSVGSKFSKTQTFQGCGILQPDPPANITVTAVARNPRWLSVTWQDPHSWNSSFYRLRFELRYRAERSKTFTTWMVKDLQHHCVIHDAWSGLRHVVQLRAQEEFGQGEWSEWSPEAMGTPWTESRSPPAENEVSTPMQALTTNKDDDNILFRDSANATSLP
Description: Hit binding affinity to various targets were determined using Microscale Thermophoresis (MST). MST experiments were performed on a Monolith NT.115pico (NanoTemper Technologies GmbH, Munich, Germany). Measurements were performed at room temperature, in triplicate with incubation periods of 15, 30 and 45 minutes. […] Targets were labeled using Nanotemper Monolith 2nd Generation Protein Labeling Kits. RED-MALEIMIDE (Maleimide-647-dye) labeling kit was used for K-Ras and RED-NHS (NHS-647-dye) labeling kit was used for IL-6, IL-6R, TNFα and ASGPR. The buffer for the ASGPR contained 20 mM HEPES pH 7.4, 150 mM NaCl, 10 mM MgCl2, 2 mM CaCl2, 0.05% Pluronic F-127, and 1 mM DTT; for IL-6 contained 20 mM HEPES pH 7.4, 150 mM KCl, 10 mM MgCl2, and 0.1% Pluronic F-127; for the soluble IL-6 receptor 20 mM HEPES pH 7.4, 150 mM NaCl, 10 mM MgCl2, and 0.05% Tween-20; for K-Ras 20 mM HEPES pH 7.4, 150 mM NaCl, 10 mM MgCl2, 0.05% Tween-20 and 1 mM DTT; for TNFα 10 mM HEPES pH 7.4, 150 mM NaCl, 10 mM MgCl2, 0.05% Polysorbate-20. Triplicate data was analyzed using MO.AffinityAnalysis software (NanoTemper Technologies GmbH).

TNFα = TNFα (Homo sapiens, UniProt P01375); experiment: MST binding affinity of resynthesized NNP hits to TNFα; design: purchased R&D Systems, Inc. 210-TA/CF; settings: read-out: KD (nM) [95% conf. int], NNP2 library hit, target TNFα, one-site binding model
How it was run: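 Microscale thermophoresis at room temperature, triplicate, 15, 30 and 45 min incubations; targets labeled with RED-NHS 647 dye. Buffers (all 20 mM HEPES pH 7.4 unless noted): IL-6 150 mM KCl, 10 mM MgCl2, 0.1% Pluronic F-127; IL-6R 150 mM NaCl, 10 mM MgCl2, 0.05% Tween-20; TNFα 10 mM HEPES, 150 mM NaCl, 10 mM MgCl2, 0.05% Polysorbate-20; ASGPR adds 2 mM CaCl2, 0.05% Pluronic F-127, 1 mM DTT.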

[1] = read-out: KD (nM) [95% conf. int]

Sequence of TNFα (P01375 77-233 limits assumed): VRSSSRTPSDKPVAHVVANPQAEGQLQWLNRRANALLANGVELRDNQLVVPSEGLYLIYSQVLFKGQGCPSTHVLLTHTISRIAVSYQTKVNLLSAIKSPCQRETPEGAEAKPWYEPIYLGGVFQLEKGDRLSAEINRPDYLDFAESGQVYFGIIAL

Question: With `CC(C)C[C@H](NC(=O)[C@@H](CCCNC(=N)N)NC(=O)[C@@H](C)NC(=O)Cc1ccc(CNC(=O)[C@H](C)NC(=O)[C@@H](Cc2c[nH]c3ccccc23)NC(=O)[C@@H](CCC(=O)O)NC(=O)Cc2ccc(CNC(=O)[C@H](Cc3ccccc3)NC(=O)[C@@H](CCCCN)NC(=O)[C@@H](CCC(=O)O)NC(=O)Cc3ccc(CNC(=O)[C@H](CC(C)C)NC(=O)[C@@H](CCC(=O)O)NC(=O)[C@@H](CCCCN)NC(=O)Cc4ccc(CNC(=O)[C@H](CC(C)C)NC(=O)[C@H](NC(=O)[C@@H](CC(N)=O)NC(=O)Cc5ccc(CNC(=O)[C@@H](NC(=O)[C@@H](CC(N)=O)NC(=O)[C@H]6CCCN6C(=O)Cc6ccc(CNC(=O)[C@H](Cc7ccccc7)NC(=O)[C@@H](Cc7c[nH]c8ccccc78)NC(=O)[C@@H](CCCNC(=N)N)NC(=O)c7ccc8c(c7)C(=O)OC87c8ccc(O)cc8Oc8cc(O)ccc87)cc6)C(C)C)cc5)[C@H](C)O)cc4)cc3)cc2)cc1)C(=O)NCc1ccc(CC(=O)N[C@H](CCC(=O)O)C(=O)N[C@H](CCCNC(=N)N)C(=O)N[C@H](C(=O)NCc2ccc(CC(=O)N[C@H](Cc3ccccc3)C(=O)N[C@H](CCCCN)C(=O)NCC(=O)NCc3ccc(CC(N)=O)cc3)cc2)C(C)C)cc1` [IL6R-87-1, Fluorescein-(D)Arg-(D)Trp-(L)Phe-PAM-(D)Pro-(D)Asn-(L)Val-PAM-(D)Asn-(D)Thr-(L)Leu-PAM-(D)Lys-(D)Glu-(L)Leu-PAM-(D)Glu-(D)Lys-(L)Phe-PAM-(D)Glu-(D)Trp-(L)Ala-PAM-(D)Ala-(D)Arg- (L)Leu-PAM-(D)Glu-(D)Arg-(L)Val-PAM-(D)Phe-(D)Lys-Gly-PAM] (5FAM-[dR][dW]F[X1][dP][dN]V[X1][dN][dT]L[X1][dK][dE]L[X1][dE][dK]F[X1][dE][dW]A[X1][dA][dR]L[X1][dE][dR]V[X1][dF][dK]G-{NHCH2C6H4(4-CH2CONH2)}) as the molecule, how does the Kd (IL-6R) read?
Answer: 1.2 nM

Question: With `CC(C)C[C@H](NC(=O)[C@@H](CCCNC(=N)N)NC(=O)[C@@H](C)NC(=O)Cc1ccc(CNC(=O)[C@H](CC(C)C)NC(=O)[C@@H](CCCNC(=N)N)NC(=O)[C@@H](CCC(=O)O)NC(=O)Cc2ccc(CNC(=O)[C@H](Cc3ccccc3)NC(=O)[C@@H](CCCCN)NC(=O)[C@@H](CCC(=O)O)NC(=O)Cc3ccc(CNC(=O)[C@H](CC(C)C)NC(=O)[C@@H](CCC(=O)O)NC(=O)[C@@H](CCCCN)NC(=O)Cc4ccc(CNC(=O)[C@H](CC(C)C)NC(=O)[C@H](NC(=O)[C@@H](CC(N)=O)NC(=O)Cc5ccc(CNC(=O)[C@H](Cc6ccccc6)NC(=O)[C@@H](CO)NC(=O)[C@@H](CCC(=O)O)NC(=O)Cc6ccc(CNC(=O)[C@H](CC(C)C)NC(=O)[C@@H](CC(C)C)NC(=O)[C@@H](Cc7ccc(O)cc7)NC(=O)c7ccc8c(c7)C(=O)OC87c8ccc(O)cc8Oc8cc(O)ccc87)cc6)cc5)[C@H](C)O)cc4)cc3)cc2)cc1)C(=O)NCc1ccc(CC(=O)N[C@H](Cc2c[nH]c3ccccc23)C(=O)N[C@H](CCCCN)C(=O)N[C@@H](CC(C)C)C(=O)NCc2ccc(CC(=O)N[C@H](Cc3ccccc3)C(=O)N[C@H](CCCCN)C(=O)NCC(=O)NCc3ccc(CC(N)=O)cc3)cc2)cc1` [IL6R-87-2] (5FAM-[dY][dL]L[X1][dE][dS]F[X1][dN][dT]L[X1][dK][dE]L[X1][dE][dK]F[X1][dE][dR]L[X1][dA][dR]L[X1][dW][dK]L[X1][dF][dK]G-{NHCH2C6H4(4-CH2CONH2)}) as the molecule, how does the Kd (IL-6R; [1]) read?
Answer: 0.8 nM

Question: With `CC(C)C[C@H](NC(=O)[C@@H](CCCNC(=N)N)NC(=O)[C@@H](C)NC(=O)Cc1ccc(CNC(=O)[C@H](CC(C)C)NC(=O)[C@@H](CCCNC(=N)N)NC(=O)[C@@H](CCC(=O)O)NC(=O)Cc2ccc(CNC(=O)[C@H](C)NC(=O)[C@@H](CCCCN)NC(=O)[C@@H](Cc3ccc(O)cc3)NC(=O)Cc3ccc(CNC(=O)[C@H](Cc4ccccc4)NC(=O)[C@@H](CC(N)=O)NC(=O)[C@@H](Cc4ccc(O)cc4)NC(=O)Cc4ccc(CNC(=O)[C@H](CC(C)C)NC(=O)[C@H](NC(=O)[C@@H](CC(N)=O)NC(=O)Cc5ccc(CNC(=O)[C@H](Cc6ccccc6)NC(=O)[C@@H](CO)NC(=O)[C@@H](CCC(=O)O)NC(=O)Cc6ccc(CNC(=O)[C@H](Cc7ccccc7)NC(=O)[C@@H](Cc7c[nH]c8ccccc78)NC(=O)[C@@H](CCCNC(=N)N)NC(=O)c7ccc8c(c7)C(=O)OC87c8ccc(O)cc8Oc8cc(O)ccc87)cc6)cc5)[C@H](C)O)cc4)cc3)cc2)cc1)C(=O)NCc1ccc(CC(=O)N[C@H](CCC(=O)O)C(=O)N[C@H](CCCNC(=N)N)C(=O)N[C@H](C(=O)NCc2ccc(CC(=O)N[C@H](Cc3ccccc3)C(=O)N[C@H](CCCCN)C(=O)NCC(=O)NCc3ccc(CC(N)=O)cc3)cc2)C(C)C)cc1` [IL6R-87-3, Fluorescein-(D)Arg-(D)Trp-(L)Phe-PAM-(D)Glu-(D)Ser-(L)Phe-PAM-(D)Asn-(D)Thr-(L)Leu-PAM-(D)Tyr-(D)Asn-(L)Phe-PAM-(D)Tyr-(D)Lys-(L)Ala-PAM-(D)Glu-(D)Arg-(L)Leu-PAM-(D)Ala-(D)Arg- (L)Leu-PAM-(D)Glu-(D)Arg-(L)Val-PAM-(D)Phe-(D)Lys-Gly-PAM] (5FAM-[dR][dW]F[X1][dE][dS]F[X1][dN][dT]L[X1][dY][dN]F[X1][dY][dK]A[X1][dE][dR]L[X1][dA][dR]L[X1][dE][dR]V[X1][dF][dK]G-{NHCH2C6H4(4-CH2CONH2)}) as the molecule, how does the Kd (IL-6R) read?
Answer: 19 nM

Question: With `CC(C)C[C@H](NC(=O)[C@@H](CCCNC(=N)N)NC(=O)[C@@H](C)NC(=O)Cc1ccc(CNC(=O)[C@H](Cc2ccccc2)NC(=O)[C@@H](CCC(=O)O)NC(=O)[C@H]2CCCN2C(=O)Cc2ccc(CNC(=O)[C@@H](NC(=O)[C@@H](CCCNC(=N)N)NC(=O)[C@@H](Cc3c[nH]c4ccccc34)NC(=O)Cc3ccc(CNC(=O)[C@H](CC(C)C)NC(=O)[C@@H](CCC(=O)O)NC(=O)[C@@H](CCCCN)NC(=O)Cc4ccc(CNC(=O)[C@H](Cc5ccccc5)NC(=O)[C@@H](CO)NC(=O)[C@@H](CCCNC(=N)N)NC(=O)Cc5ccc(CNC(=O)[C@H](Cc6ccccc6)NC(=O)[C@@H](CO)NC(=O)[C@@H](CCC(=O)O)NC(=O)Cc6ccc(CNC(=O)[C@H](Cc7ccccc7)NC(=O)[C@H](NC(=O)[C@@H](CC(N)=O)NC(=O)c7ccc8c(c7)C(=O)OC87c8ccc(O)cc8Oc8cc(O)ccc87)C(C)C)cc6)cc5)cc4)cc3)C(C)C)cc2)cc1)C(=O)NCc1ccc(CC(=O)N2CCC[C@@H]2C(=O)N[C@H](CCCNC(=N)N)C(=O)N[C@@H](C)C(=O)NCc2ccc(CC(=O)N[C@H](Cc3ccccc3)C(=O)N[C@H](CCCNC(=N)N)C(=O)NCC(=O)NCc3ccc(CC(N)=O)cc3)cc2)cc1` [IL6R-87-4] (5FAM-[dN][dV]F[X1][dE][dS]F[X1][dR][dS]F[X1][dK][dE]L[X1][dW][dR]V[X1][dP][dE]F[X1][dA][dR]L[X1][dP][dR]A[X1][dF][dR]G-{NHCH2C6H4(4-CH2CONH2)}) as the molecule, how does the Kd (IL-6R; [1]) read?
Answer: 22 nM

Question: With `CC(C)C[C@H](NC(=O)[C@@H](CCCNC(=N)N)NC(=O)CNC(=O)Cc1ccc(CNC(=O)[C@H](CC(C)C)NC(=O)[C@H](NC(=O)[C@@H](CCCCN)NC(=O)c2ccc3c(c2)C(=O)OC32c3ccc(O)cc3Oc3cc(O)ccc32)C(C)C)cc1)C(=O)NCc1ccc(CC(=O)N[C@H](Cc2ccccc2)C(=O)N[C@H](CCC(=O)O)C(=O)N[C@H](C(=O)NCc2ccc(CC(=O)N[C@H](Cc3ccccc3)C(=O)N[C@H](CCCNC(=N)N)C(=O)N[C@@H](C)C(=O)NCc3ccc(CC(=O)N[C@H](Cc4c[nH]c5ccccc45)C(=O)N[C@H](CCCNC(=N)N)C(=O)N[C@H](C(=O)NCc4ccc(CC(=O)N[C@H](CCC(=O)O)C(=O)N[C@H](CCCNC(=N)N)C(=O)N[C@@H](CC(C)C)C(=O)NCc5ccc(CC(=O)N[C@H](Cc6c[nH]cn6)C(=O)N[C@H](CCC(=O)O)C(=O)N[C@@H](CC(C)C)C(=O)NCc6ccc(CC(=O)N[C@H](CCCCN)C(=O)N[C@H](Cc7ccccc7)C(=O)N[C@@H](Cc7ccccc7)C(=O)NCc7ccc(CC(=O)N[C@H](Cc8ccc(O)cc8)C(=O)N[C@H](CCCNC(=N)N)C(=O)N[C@@H](Cc8ccccc8)C(=O)NCc8ccc(CC(N)=O)cc8)cc7)cc6)cc5)cc4)C(C)C)cc3)cc2)C(C)C)cc1` [TNF-39-15] (5FAM-[dK][dV]L[X1]G[dR]L[X1][dF][dE]V[X1][dF][dR]A[X1][dW][dR]V[X1][dE][dR]L[X1][dH][dE]L[X1][dK][dF]F[X1][dY][dR]F-{NHCH2C6H4(4-CH2CONH2)}) as the molecule, how does the Kd (TNFα) read?
Answer: 46 nM
